Data on nine compounds can be found in ChEMBL document CHEMBL1148279, “Effects of bisphosphonates on the growth of Entamoeba histolytica and Plasmodium species in vitro and in vivo” (J Med Chem, 2004).

One data set can be described thus: in vitro. The following applies: human, KB cells (nasopharyngeal carcinoma).
Data set [1] deals with Plasmodium falciparum. The data set is described as follows: microbe, parasite or virus in culture.
Description: In vitro growth inhibition against Plasmodium falciparum
Data set [2] deals with Mus musculus. Description: Mean reduction in parasitaemia of Plasmodium berghei ANKA suppressive test in mice (Mus musculus) (in vivo) at 25 mg/kg scheduled for 4 days. In kind it is functional.
A short description of data set [3]: Inhibitory activity against Entamoeba histolytica pyrophosphate-dependent phosphofructokinase (PFK) (Range is 600-1200). In kind it is functional.
In the next data set the test system is Entamoeba histolytica. The data set is described as follows: In vitro growth inhibition against Entamoeba histolytica. In kind it is functional, organism-based.
The test system of data set [4] is Mus musculus. Description: Mean reduction in parasitaemia of Plasmodium berghei ANKA suppressive test in mice (Mus musculus) (in vivo) at 10 mg/kg scheduled for 4 days. In kind it is functional.
Data set [5] concerns Cricetinae gen. sp. Description: Percent decrease of normal liver weight (mg) in Entamoeba histolytica infected hamsters (treated at 10 mg/kg ip once a day for 5 days). The format is functional, Cricetulus griseus. As to conditions: route intraperitoneal.
Data set [6] in a line: Inhibitory activity against Entamoeba histolytica pyrophosphate-dependent phosphofructokinase (PFK). In kind it is functional.
Data set [7] deals with Cricetinae gen. sp. Description: Mean effect on amebic liver abscess (mg) formation in Entamoeba histolytica infected hamsters (treated at 10 mg/kg ip once a day for 5 days). As to conditions: route intraperitoneal. The format is functional, Cricetulus griseus.
The subject of data set [8] is Cricetinae gen. sp. The data set is described as follows: Mean effect on normal liver weight (mg) in Entamoeba histolytica infected hamsters (treated at 10 mg/kg ip once a day for 5 days). The format is functional, Cricetulus griseus. The following applies: route intraperitoneal.
Data set [9] deals with Cricetinae gen. sp. Description: Percent decrease of amebic liver abscess (mg) formation in Entamoeba histolytica infected hamsters (treated at 10 mg/kg ip once a day for 5 days). In kind it is functional. The following applies: route intraperitoneal.
A short description of data set [10]: Inhibitory activity against Entamoeba histolytica pyrophosphate-dependent phosphofructokinase (PFK) (Range is 900-1000). The format is functional.
A short description of data set [11]: Therapeutic index was expressed as ratio of LD50 for KB cell line to IC50 against Plasmodium falciparum. The format is cell-based. The following applies: human, KB cells; read-out: TI.
Data set [12] is described as follows: Therapeutic index was expressed as ratio of LD50 for KB cell line to IC50 against Entamoeba histolytica. The format is cell-based. The following applies: human, KB cells; read-out: TI.
Data set [13] can be described thus: Inhibitory activity against Entamoeba histolytica pyrophosphate-dependent phosphofructokinase (PFK) (Range is 2500-3000). In kind it is functional.
For data set [14], the system named is Plasmodium falciparum. Description: Inhibitory activity against Plasmodium falciparum 3D7.
Data set [15] has as its system Plasmodium falciparum. Description: Inhibitory activity against Plasmodium falciparum W2.
Data set [16] concerns Plasmodium falciparum. Description: Inhibitory activity against Plasmodium falciparum Ghana.
The test system of data set [17] is Mus musculus. The data set is described as follows: Mean reduction in parasitaemia of Plasmodium berghei ANKA suppressive test in mice (Mus musculus) (in vivo) at 10 mg/kg scheduled for 2 days. In kind it is functional.

Each structure is given as a SMILES string.

Description for in vitro: Toxicity evaluated against human nasopharyngeal carcinoma KB cell line

As a reminder, the CC50 is the concentration at which the toxic effect on the cells reaches its halfway point. Low readings indicate greater toxicity to the cells, high ones lower toxicity to the cells. One may read the IC50 as the concentration at which inhibition is half-maximal. Higher therefore signals lower potency. `CCCCCC(O)(P(=O)(O)O)P(=O)(O)O` displayed a cytotoxic concentration (CC50) in “in vitro” of more than 993 µM. Moreover, the IC50 stood at 5.53 µM in the data set on Plasmodium falciparum [1], 1200 µM in data set [3] and 157 µM in the data set with Entamoeba histolytica. The same compound yielded a Reduction in the data set on Mus musculus [2] of 80%.

`CCN(CC)CCCC(C)Nc1ccnc2cc(Cl)ccc12` (stereo not drawn) [CHLOROQUINE] displayed a Reduction with Mus musculus [4] of 100%.

On to `O=P(O)(O)C(Nc1cccc(-c2ccccc2)c1)P(=O)(O)O`, for which the Decrease in the data set on Cricetinae gen. sp. [5] is listed as -4%; in the data set with Cricetinae gen. sp. [9], 36%. Also, the CC50 in “in vitro” was 749 µM. Besides, the half-maximal inhibitory concentration (IC50) is more than 200 µM in the data set on Plasmodium falciparum [1], 90 µM in data set [6] and 6.6 µM in the data set on Entamoeba histolytica. The Mean effect with Cricetinae gen. sp. [7] is recorded as 570 mg; with Cricetinae gen. sp. [8], 2459 mg.

In the case of `NCCC(O)(P(=O)(O)O)P(=O)(O)O` [PAMIDRONIC ACID], the Reduction in the data set with Mus musculus [2] amounted to 5%. The compound also registered an IC50 with Entamoeba histolytica of more than 200 µM.

Regarding `CCCCCCCCCCC(O)(P(=O)(O)O)P(=O)(O)O`, the results for the Decrease in the data set with Cricetinae gen. sp. [5] and in the data set with Cricetinae gen. sp. [9] were 9% and 68%, respectively. Moreover, the 50% cytotoxic concentration (CC50) in “in vitro” is more than 806 µM. The IC50 in the data set with Plasmodium falciparum [1] turned out to be 5.23 µM; in [6] it was 20 µM; in the data set with Entamoeba histolytica it was 11 µM. Also, the Mean effect with Cricetinae gen. sp. [7] is recorded as 285 mg; with Cricetinae gen. sp. [8] it was 2163 mg.

Consider `O=P(O)(O)C(O)(Cc1ccccc1)P(=O)(O)O`, for which the half-maximal inhibitory concentration (IC50) in data set [10] is 1000 µM; in the data set on Entamoeba histolytica, more than 200 µM. In the data set “in vitro”, this compound gave a 50% cytotoxic concentration (CC50) of more than 931 µM. Also, the selectivity ratio in data set [11] is more than 121. The compound also displayed a Reduction in the data set on Mus musculus [2] of 64%.

As to `O=P(O)(O)C(Nc1cc(Br)cc(Br)n1)P(=O)(O)O`, the values for the Decrease with Cricetinae gen. sp. [5] and with Cricetinae gen. sp. [9] were -22% and 14%, respectively. Besides, the 50% cytotoxic concentration (CC50) in the data set “in vitro” is 520 µM. Further, the concentration for half-maximal inhibition (IC50) is more than 200 µM in the data set with Plasmodium falciparum [1] and 28.5 µM with Entamoeba histolytica. Further, the Mean effect is 767 mg with Cricetinae gen. sp. [7] and 2883 mg with Cricetinae gen. sp. [8]. Moreover, the selectivity ratio in data set [12] was 18.2.

On to `CCCCCCC(O)(P(=O)(O)O)P(=O)(O)O`, for which the half-inhibitory concentration (IC50) was found to be 3000 µM in data set [13]; 4.34 µM with Plasmodium falciparum [14]; 4.34 µM in the data set with Plasmodium falciparum [1]; 0.5 µM in the data set with Plasmodium falciparum [15]; 0.5 µM with Plasmodium falciparum [16]; 29.5 µM with Entamoeba histolytica. This compound also yielded a CC50 in the data set “in vitro” of 109 µM. Further, the Reduction in the data set on Mus musculus [4] is given as 48%.

The compound `CCCCCCCCCC(O)(P(=O)(O)O)P(=O)(O)O` came in with a cytotoxic concentration (CC50) in the data set “in vitro” of more than 775 µM. Further, the half-maximal inhibitory concentration (IC50) in the data set on Plasmodium falciparum [14] came to 0.83 µM; with Plasmodium falciparum [1], 0.83 µM; in the data set on Plasmodium falciparum [15], 1 µM; in data set [6], 70 µM; in the data set with Plasmodium falciparum [16], 2 µM; with Entamoeba histolytica, 13.3 µM. This compound had a Reduction in the data set on Mus musculus [17] of 75%.
